According to patent US20110039762A1, “TARGETED ANTIMICROBIAL MOIETIES” (C3 JIAN, INC., priority 2009, published 2011):
Entries after “also recorded” stand apart in the source; their conditions may differ.

Key:
[1] = tested on: MRSA; experiment: Kill or inhibit growth/proliferation; morphology, biofilm and growth disruption (Tables 5, 6); type: cell-based, Methicillin-resistant Staphylococcus aureus; parameters: key: A: Peptide aggregates; B: Less hyphal formation; Clumps; Diffuse clumps and small polyps; F: Diffuse growth; H: Thin; I: Growth inhibition; Microcolony formation; Rippled; Small polyps; Thick; W: Halo formation on top, microlonies on bottom; note: test concentration or dose not given here
[2] = tested on: S. pneumoniae; experiment: as above; type: cell-based, Streptococcus pneumoniae; parameters: key: A: Peptide aggregates; B: Less hyphal formation; Clumps; Diffuse clumps and small polyps; F: Diffuse growth; H: Thin; I: Growth inhibition; Microcolony formation; Rippled; Small polyps; Thick; W: Halo formation on top, microlonies on bottom; note: test concentration or dose not given here
[3] = tested on: microorganisms (e.g., bacteria, yeasts, fungi); experiment: Targeting peptide binding to target microorganisms (Table 3); conditions: preferably 1x PBS; for Target(s) (microorganisms bound by the targeting peptide): peptide binding in aqueous buffers varied by peptide solubility
[4] = tested on: microorganisms; experiment: Peptides having multiple activities (targeting/binding, antimicrobial, growth or phenotype altering)
From the text: In certain embodiments, peptides described herein can have multiple activities. Thus for example, a peptide can have both binding/targeting activity and antimicrobial activity. Such peptides can be used, e.g., in a chimeric construct, for any or all of these properties. Thus, for example, a peptide designated “B” in Table 8 can be used as a targeting peptide. If it is also designated G or M it can also be used for antimicrobial activity.

[5] = microorganism(s) the targeting peptide binds, peptide binding conducted in aqueous buffers varied by peptide solubility
[6] = microorganism the targeting peptide binds, binding in aqueous buffers varied by peptide solubility
[7] = microorganism(s) the targeting peptide binds, binding in aqueous buffers depending on peptide solubility

| Substance | Organism, effect [1] | Activities [4] | Target(s) [3, 6] | Target(s) (microorganisms bound by the targeting peptide) [3] | also measured |
| --- | --- | --- | --- | --- | --- |
| MQIFYIKTKIFLSFFLFLLIFSQCFYKIEE [PF-442] | MRSA (M) | G B |  |  | Organism, effect [2]: S. pneumoniae (C); Target(s) [3, 5]: S. epidermidis; also recorded: E. coli; also recorded: C. albicans; also recorded: S. pneumoniae; also recorded: E. faecalis |
| PF-015: peptide having multiple activities (chain 1 SIDKRNLYNLKYYE; chain 2 SIDKRNLYNLKYYE; Peptide with targeting and/or antimicrobial activity) | MRSA (W) | G B | E. faecalis; also recorded: C. jeikeium |  |  |
| PF-017: peptide having multiple activities (chain 1 ESIIE; chain 2 ESIIE; Peptide with targeting and/or antimicrobial activity) | MRSA (M) | G B | E. coli |  |  |
| PF-026: peptide having multiple activities (chain 1 SIHFIN; chain 2 SIHFIN; Peptide with targeting and/or antimicrobial activity) | MRSA (M) | G B | S. epidermidis and M. luteus and P. mirabilis and C. albicans and MRSA and E. faecalis and C. jeikeium |  |  |
| PF-029: peptide having multiple activities (chain 1 NSTNE; chain 2 NSTNE; Peptide with targeting and/or antimicrobial activity) | MRSA (M) | G B | S. epidermidis; also recorded: M. luteus; also recorded: C. albicans; also recorded: C. jejuni |  |  |
| PF-031: peptide having multiple activities (chain 1 MPHHSTTSSRIVVPAHQSNMASTPNLSITP; chain 2 MPHHSTTSSRIVVPAHQSNMASTPNLSITP; Peptide with targeting and/or antimicrobial activity) | MRSA (M) | G B | M. luteus; also recorded: C. albicans |  |  |
| PF-035: peptide having multiple activities (chain 1 SFYESY; chain 2 SFYESY; Peptide with targeting and/or antimicrobial activity) | MRSA (M) | G B | S. epidermidis and M. luteus and E. coli and C. albicans and MRSA and C. jeikeium and C. jejuni |  |  |
| PF-045: peptide having multiple activities (chain 1 LDINDYRSTY; chain 2 LDINDYRSTY; Peptide with targeting and/or antimicrobial activity) | MRSA (S) | G B | S. epidermidis; also recorded: E. coli; also recorded: E. faecalis; also recorded: C. jejuni |  |  |
| PF-049: peptide having multiple activities (chain 1 AYYLKRREEKGK; chain 2 AYYLKRREEKGK; Peptide with targeting and/or antimicrobial activity) | MRSA (S) | G B | S. epidermidis and MRSA and C. jeikeium and C. jejuni |  |  |
| PF-058: peptide having multiple activities (chain 1 FADQSQDNA; chain 2 FADQSQDNA; Peptide with targeting and/or antimicrobial activity) | MRSA (M) | G B | S. epidermidis and M. luteus and E. coli and C. albicans and MRSA and C. jeikeium and C. jejuni |  |  |
| PF-149: peptide having multiple activities (GKVSVLTRVPRSLGGAPANQ; Peptide with targeting and/or antimicrobial activity) | MRSA (H) | G B |  |  | Target(s) [3, 7]: S. epidermidis and M. luteus and E. coli and MRSA and C. jeikeium |
| PF-156: peptide having multiple activities (LITAEQPATAPIAGK; Peptide with targeting and/or antimicrobial activity) | MRSA (H) | G B |  |  | Target(s) [3, 7]: S. epidermidis; also recorded: C. jeikeium |
| PF-354: peptide having multiple activities (chain 1 FTFSKCRASNGRGFGTLWL; chain 2 FTFSKCRASNGRGFGTLWL; Peptide with targeting and/or antimicrobial activity) | MRSA (H) | G B |  |  |  |
| PF-382: peptide having multiple activities (chain 1 KYKCSWCKRVYTLRKDHKTAR; chain 2 KYKCSWCKRVYTLRKDHKTAR; Peptide with targeting and/or antimicrobial activity) | MRSA (M) | G B |  |  | Target(s) [3, 7]: S. epidermidis; also recorded: B. subtilis; also recorded: B. fragilis; also recorded: E. coli; also recorded: P. aeruginosa; also recorded: E. faecalis; also recorded: C. jeikeium; also recorded: C. jejuni |
| PF-405: peptide having multiple activities (LVRIEVDDLEEWYERNFI; Peptide with targeting and/or antimicrobial activity) | MRSA (M) | G B |  |  | Target(s) [3, 5]: S. epidermidis; also recorded: E. coli; also recorded: E. faecalis |
| PF-539: peptide having multiple activities (chain 1 SIILTKKKRRKIPLSIDSQIYKYTFKQ; chain 2 SIILTKKKRRKIPLSIDSQIYKYTFKQ; Peptide with targeting and/or antimicrobial activity) | MRSA (H) | G B |  |  | Organism, effect [2]: S. pneumoniae (A) |
| PF-551: peptide having multiple activities (chain 1 QVKEKRREIELQFRDAEKKLEASVQAE; chain 2 QVKEKRREIELQFRDAEKKLEASVQAE; Peptide with targeting and/or antimicrobial activity) | MRSA (C) | G B |  |  | Target(s) [3, 5]: S. pneumoniae |
| PF-630: peptide having multiple activities (chain 1 IPATPIIHS; chain 2 IPATPIIHS; Peptide with targeting and/or antimicrobial activity) | MRSA (M) | G B |  |  |  |
| PF-642: peptide having multiple activities (chain 1 FTTPMIGIPAGLLGGSYYLKRREEKGK; chain 2 FTTPMIGIPAGLLGGSYYLKRREEKGK; Peptide with targeting and/or antimicrobial activity) | MRSA (M) | G B |  | M. luteus and MRSA and C. jeikeium |  |
| PF-658 (chain 1 PTTPPPTTPPEIPTGGTVIST; chain 2 PTTPPPTTPPEIPTGGTVIST; Peptide with targeting and/or antimicrobial activity) |  |  |  | Mycobacteria spp | Organism, effect (morphology, biofilm and growth disruption) [1]: MRSA (R); Organism, effect (morphology, biofilm and growth disruption) [2]: S. pneumoniae (H) |
| PF-661 (chain 1 PDEDIRRRAILPPAGPCRPMSPE; chain 2 PDEDIRRRAILPPAGPCRPMSPE; Peptide with targeting and/or antimicrobial activity) |  |  |  | Mycobacteria spp | Organism, effect (morphology, biofilm and growth disruption) [1]: MRSA (R) |
| PF-680 (chain 1 ADPHPTTGI; chain 2 ADPHPTTGI; Peptide with targeting and/or antimicrobial activity) |  |  |  | Mycobacteria spp | Organism, effect (morphology, biofilm and growth disruption) [1]: MRSA (R) |
| PF-692 (chain 1 GVAREDPLEPDPLAPIIDDSR; chain 2 GVAREDPLEPDPLAPIIDDSR; Peptide with targeting and/or antimicrobial activity) |  |  |  | Mycobacteria spp | Organism, effect (morphology, biofilm and growth disruption) [1]: MRSA (R) |
| PF-694 (chain 1 DLIRPLYSMSAPSVA; chain 2 DLIRPLYSMSAPSVA; Peptide with targeting and/or antimicrobial activity) |  |  |  | Mycobacteria spp | Organism, effect (morphology, biofilm and growth disruption) [1]: MRSA (R); Organism, effect (morphology, biofilm and growth disruption) [2]: S. pneumoniae (A) |
| PF-738: peptide having multiple activities (KSGATSAASGAKSGASS; Peptide with targeting and/or antimicrobial activity) |  | G B |  | S. epidermidis; also recorded: C. albicans; also recorded: C. jeikeium | Organism, effect (morphology, biofilm and growth disruption) [1]: MRSA (M) |
| PF-764: peptide having multiple activities (GYFEPGKRD; Peptide with targeting and/or antimicrobial activity) |  | G B |  | S. epidermidis and M. luteus and C. albicans and MRSA and S. pneumoniae and E. faecalis and C. jeikeium | Organism, effect (morphology, biofilm and growth disruption) [1]: MRSA (D); Organism, effect (morphology, biofilm and growth disruption) [2]: S. pneumoniae (H) |
